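Each compound was tested at five concentrations against cells in 96-well plates for 48 hours. GI50 = concentration required for 50% inhibition of growth. Definition used: TGI = concentration required for complete inhibition of growth.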
Columns and labels:
Assay in all cases: NCI-60 cell line screen, 48 h
MDA-MB-231 breast = tested on: MDA-MB-231 breast
NCI/ADR-RES ovarian = tested on: NCI/ADR-RES ovarian
OVCAR-8 ovarian = tested on: OVCAR-8 ovarian
UACC-257 melanoma = tested on: UACC-257 melanoma
TK-10 renal = tested on: TK-10 renal
HOP-62 NSCLC = tested on: HOP-62 NSCLC
IGROV1 ovarian = tested on: IGROV1 ovarian
SR leukemia = tested on: SR leukemia
SF-295 CNS = tested on: SF-295 CNS
SK-MEL-2 melanoma = tested on: SK-MEL-2 melanoma
CAKI-1 renal = tested on: CAKI-1 renal
A498 renal = tested on: A498 renal
K-562 leukemia = tested on: K-562 leukemia
KM12 colon = tested on: KM12 colon
HCT-15 colon = tested on: HCT-15 colon
UO-31 renal = tested on: UO-31 renal
OVCAR-3 ovarian = tested on: OVCAR-3 ovarian
SK-OV-3 ovarian = tested on: SK-OV-3 ovarian
SNB-19 CNS = tested on: SNB-19 CNS
OVCAR-4 ovarian = tested on: OVCAR-4 ovarian
HOP-92 NSCLC = tested on: HOP-92 NSCLC
DU-145 prostate = tested on: DU-145 prostate
NCI-H460 lung = tested on: NCI-H460 lung
U251 CNS = tested on: U251 CNS
M14 melanoma = tested on: M14 melanoma
PC-3 prostate = tested on: PC-3 prostate
MCF7 breast = tested on: MCF7 breast
HCC-2998 colon = tested on: HCC-2998 colon
EKVX NSCLC = tested on: EKVX NSCLC
OVCAR-5 ovarian = tested on: OVCAR-5 ovarian
SK-MEL-5 melanoma = tested on: SK-MEL-5 melanoma
SNB-75 CNS = tested on: SNB-75 CNS
RPMI-8226 leukemia = tested on: RPMI-8226 leukemia
SW-620 colon = tested on: SW-620 colon
UACC-62 melanoma = tested on: UACC-62 melanoma
MDA-MB-435 = tested on: MDA-MB-435
SF-268 CNS = tested on: SF-268 CNS
HS 578T breast = tested on: HS 578T breast
SF-539 CNS = tested on: SF-539 CNS
NCI-H522 lung = tested on: NCI-H522 lung
MALME-3M melanoma = tested on: MALME-3M melanoma
A549 NSCLC = tested on: A549 NSCLC
NCI-H226 lung = tested on: NCI-H226 lung
HT29 colon = tested on: HT29 colon
BT-549 breast = tested on: BT-549 breast
SN12C renal = tested on: SN12C renal
COLO 205 colon = tested on: COLO 205 colon
CCRF-CEM leukemia = tested on: CCRF-CEM leukemia
T-47D breast = tested on: T-47D breast
NCI-H23 lung = tested on: NCI-H23 lung
HL-60(TB) leukemia = tested on: HL-60(TB) leukemia
LOX IMVI melanoma = tested on: LOX IMVI melanoma
MOLT-4 leukemia = tested on: MOLT-4 leukemia
SK-MEL-28 melanoma = tested on: SK-MEL-28 melanoma
786-0 renal = tested on: 786-0 renal
ACHN renal = tested on: ACHN renal
HCT-116 colon = tested on: HCT-116 colon
RXF 393 renal = tested on: RXF 393 renal

## COC(=O)c1ccc2[nH]c(O)c(C(=Nc3ccc(N(C)C(=O)CN4CCN(C)CC4)cc3)c3ccc(OC)cc3)c2c1
MDA-MB-231 breast
  GI50: 1.07 µM
  TGI: 2.95 µM
NCI/ADR-RES ovarian
  GI50: 12.5 µM
  TGI: 37.2 µM
OVCAR-8 ovarian
  GI50: 1.18 µM
  TGI: 24.6 µM
UACC-257 melanoma
  GI50: 10.5 µM
  TGI: 22.8 µM
TK-10 renal
  GI50: 2.39 µM
  TGI: 12.4 µM
HOP-62 NSCLC
  GI50: 1.57 µM
  TGI: 12.4 µM
IGROV1 ovarian
  GI50: 0.226 µM
  TGI: 2.6 µM
SR leukemia
  GI50: 0.309 µM
  TGI: 4.92 µM
SF-295 CNS
  GI50: 1.25 µM
  TGI: 3.49 µM
SK-MEL-2 melanoma
  GI50: 2.04 µM
  TGI: 7.04 µM
CAKI-1 renal
  GI50: 0.383 µM
  TGI: 11.1 µM
A498 renal
  GI50: 1.52 µM
  TGI: 3.11 µM
K-562 leukemia
  GI50: 0.255 µM
  TGI: 10.2 µM
KM12 colon
  GI50: 0.0432 µM
  TGI: 6.45 µM
HCT-15 colon
  GI50: 1.81 µM
  TGI: 6.61 µM
UO-31 renal
  GI50: 1.37 µM
  TGI: 4.46 µM
OVCAR-3 ovarian
  GI50: 1.23 µM
  TGI: 2.83 µM
SK-OV-3 ovarian
  GI50: 0.228 µM
  TGI: 1.75 µM
SNB-19 CNS
  GI50: 2.1 µM
  TGI: 10 µM
OVCAR-4 ovarian
  GI50: 0.928 µM
  TGI: 3.14 µM
HOP-92 NSCLC
  GI50: 3.7 µM
  TGI: 15.2 µM
DU-145 prostate
  GI50: 2.37 µM
  TGI: 11.3 µM
NCI-H460 lung
  GI50: 1.48 µM
  TGI: 3.76 µM
U251 CNS
  GI50: 1.09 µM
  TGI: 2.48 µM
M14 melanoma
  GI50: 0.724 µM
  TGI: 2.28 µM
PC-3 prostate
  GI50: 1.16 µM
  TGI: 7.77 µM
MCF7 breast
  GI50: 0.518 µM
  TGI: 2.49 µM
HCC-2998 colon
  GI50: 2.12 µM
  TGI: 10.6 µM
EKVX NSCLC
  GI50: 2.38 µM
  TGI: 12.4 µM
OVCAR-5 ovarian
  GI50: 5.21 µM
  TGI: 17.6 µM
SK-MEL-5 melanoma
  GI50: 1.35 µM
  TGI: 2.77 µM
SNB-75 CNS
  GI50: 0.294 µM
  TGI: 8.27 µM
RPMI-8226 leukemia
  GI50: 1.46 µM
  TGI: 4.4 µM
SW-620 colon
  GI50: 0.756 µM
  TGI: 4.35 µM
UACC-62 melanoma
  GI50: 4.96 µM
  TGI: 18.6 µM
MDA-MB-435
  GI50: 2.05 µM
  TGI: 14.5 µM
SF-268 CNS
  GI50: 2.61 µM
  TGI: 13.6 µM
HS 578T breast
  GI50: 0.186 µM
  TGI: 10.3 µM
SF-539 CNS
  GI50: 0.473 µM
  TGI: 1.76 µM
NCI-H522 lung
  GI50: 1.66 µM
  TGI: 5.6 µM
MALME-3M melanoma
  GI50: 1.33 µM
  TGI: 2.72 µM
A549 NSCLC
  GI50: 2.01 µM
  TGI: 12.1 µM
NCI-H226 lung
  GI50: 0.906 µM
  TGI: 18.9 µM
HT29 colon
  GI50: 1.11 µM
  TGI: 25.2 µM
BT-549 breast
  GI50: 1.15 µM
  TGI: 2.65 µM
SN12C renal
  GI50: 0.41 µM
  TGI: 13.1 µM
COLO 205 colon
  GI50: 0.664 µM
  TGI: 2.34 µM
CCRF-CEM leukemia
  GI50: 0.414 µM
  TGI: 11.1 µM
T-47D breast
  GI50: 1.82 µM
  TGI: 18.1 µM
NCI-H23 lung
  GI50: 1.25 µM
  TGI: 3.64 µM
HL-60(TB) leukemia
  GI50: 0.712 µM
  TGI: 3.15 µM
LOX IMVI melanoma
  GI50: 0.506 µM
  TGI: 2.13 µM
MOLT-4 leukemia
  GI50: 0.414 µM
  TGI: 3.62 µM
SK-MEL-28 melanoma
  GI50: 3.15 µM
  TGI: 14 µM
786-0 renal
  GI50: 0.73 µM
  TGI: 2.13 µM
ACHN renal
  GI50: 1.71 µM
  TGI: 10.3 µM
HCT-116 colon
  GI50: 0.227 µM
  TGI: 10.1 µM
RXF 393 renal
  GI50: 0.466 µM
  TGI: 1.82 µM

— PubChem BioAssay (NCI)
